Measurements reported in US20240349726A1, “SUBSTITUTED 1,2,4-THIADIAZOLYL NICOTINAMIDES, SALTS OR N-OXIDES THEREOF AND THEIR USE AS HERBICIDALLY ACTIVE SUBSTANCES” (Bayer Aktiengesellschaft, priority 2021, published 2024).

Columns and labels:
Format in all cases: in vivo
Kochia scoparia [1] = test: Herbicidal pre-emergence action, KCHSC; conditions: visual grading after ca. 3 weeks vs untreated controls
Text: (§1) Seeds of mono- and dicotyledonous weed plants were sown in plastic pots (double sowings with one species of mono- and one species of dicotyledonous weed plants per pot), in sandy loam, and covered with soil. The compounds according to the invention, formulated in the form of wettable powders (WP) or as emulsifiable concentrates (EC), were applied to the surface of the covering soil as an aqueous suspension or as an emulsion, with the addition of 0.5% of an additive, at an application rate of 600 litres of water per hectare (converted). Following treatment, the pots were placed in a greenhouse and kept under optimum growth conditions for the test plants. The visual grading of the damage to the test plants is carried out after ca. 3 weeks in comparison to untreated controls (herbicidal effect in percent (%): 100% effect=plants have died, 0% effect=as control plants). Seeds of mono- and dicotyledonous weed plants were sown in plastic pots (double sowings with one species of mono- and one species of dicotyledonous weed plants per pot), in sandy loam, and covered with soil. The compounds according to the invention, formulated in the form of wettable powders (WP) or as emulsifiable concentrates (EC), were applied to the surface of the covering soil as an aqueous suspension or as an emulsion, with the addition of 0.5% of an additive, at an application rate of 600 litres of water per hectare (converted). Following treatment, the pots were placed in a greenhouse and kept under optimum growth conditions for the test plants. The visual grading of the damage to the test plants is carried out after ca. 3 weeks in comparison to untreated controls (herbicidal effect in percent (%): 100% effect=plants have died, 0% effect=as control plants).

Lolium rigidum [2] = test: Herbicidal pre-emergence action, LOLRI; conditions: visual grading after ca. 3 weeks vs untreated controls
Text: as §1

Matricaria inodora [3] = test: Herbicidal pre-emergence action, MATIN; conditions: visual grading after ca. 3 weeks vs untreated controls
Text: as §1

Setaria viridis [4] = test: Herbicidal pre-emergence action, SETVI; conditions: 1280 g/ha, visual grading after ca. 3 weeks vs untreated controls
Text: (§2) Seeds of mono- and dicotyledonous weed plants were sown in plastic pots (double sowings with one species of mono- and one species of dicotyledonous weed plants per pot), in sandy loam, and covered with soil. The compounds according to the invention, formulated in the form of wettable powders (WP) or as emulsifiable concentrates (EC), were applied to the surface of the covering soil as an aqueous suspension or as an emulsion, with the addition of 0.5% of an additive, at an application rate of 600 litres of water per hectare (converted). Following treatment, the pots were placed in a greenhouse and kept under optimum growth conditions for the test plants. The visual grading of the damage to the test plants is carried out after ca. 3 weeks in comparison to untreated controls (herbicidal effect in percent (%): 100% effect=plants have died, 0% effect=as control plants).

Stellaria media [5] = test: Herbicidal pre-emergence action, STEME; conditions: visual grading after ca. 3 weeks vs untreated controls
Text: as §1

Amaranthus retroflexus [6] = test: Herbicidal pre-emergence action, AMARE; conditions: visual grading after ca. 3 weeks vs untreated controls
Text: as §1

Abutilon theophrasti [7] = test: Herbicidal pre-emergence action, ABUTH; conditions: 1280 g/ha, visual grading after ca. 3 weeks vs untreated controls
Text: as §2

Lolium rigidum [8] = test: Herbicidal post-emergence action, LOLRI; conditions: assessed visually after ca. 3 weeks vs untreated controls
Text: (§3) Seeds of mono- and dicotyledonous weed plants were sown in plastic pots (double sowings with one species of mono- and one species of dicotyledonous weed plants per pot), in sandy loam, covered with soil and grown under controlled growth conditions. 2 to 3 weeks after sowing, the test plants were sprayed in the single-leaf stage. The compounds according to the invention, formulated in the form of wettable powders (WP) or as emulsifiable concentrates (EC), were sprayed onto the green plant parts as an aqueous suspension or as an emulsion, with the addition of 0.5% of an additive, at an application rate of 600 litres of water per hectare (converted). The test plants were placed in the greenhouse for ca. 3 weeks under optimum growth conditions, and then the effect of the preparations is assessed visually in comparison with untreated controls (herbicidal effect in percent (%): 100% effect=plants have died, 0% effect=as control plants). […]

Matricaria inodora [9] = test: Herbicidal post-emergence action, MATIN; conditions: assessed visually after ca. 3 weeks vs untreated controls
Text: as §3

Stellaria media [10] = test: Herbicidal post-emergence action, STEME; conditions: assessed visually after ca. 3 weeks vs untreated controls
Text: as §3

Veronica persica [11] = test: Herbicidal post-emergence action, VERPE; conditions: assessed visually after ca. 3 weeks vs untreated controls
Text: as §3

Amaranthus retroflexus [12] = test: Herbicidal post-emergence action, AMARE; conditions: assessed visually after ca. 3 weeks vs untreated controls
Text: as §3

Echinochloa crus-galli [13] = test: Herbicidal post-emergence action, ECHCG; conditions: 1280 g/ha, assessed visually after ca. 3 weeks vs untreated controls
Text: (§4) Seeds of mono- and dicotyledonous weed plants were sown in plastic pots (double sowings with one species of mono- and one species of dicotyledonous weed plants per pot), in sandy loam, covered with soil and grown under controlled growth conditions. 2 to 3 weeks after sowing, the test plants were sprayed in the single-leaf stage. The compounds according to the invention, formulated in the form of wettable powders (WP) or as emulsifiable concentrates (EC), were sprayed onto the green plant parts as an aqueous suspension or as an emulsion, with the addition of 0.5% of an additive, at an application rate of 600 litres of water per hectare (converted). The test plants were placed in the greenhouse for ca. 3 weeks under optimum growth conditions, and then the effect of the preparations is assessed visually in comparison with untreated controls (herbicidal effect in percent (%): 100% effect=plants have died, 0% effect=as control plants).

Alopecurus myosuroides [14] = test: Herbicidal pre-emergence action, ALOMY; conditions: 1280 g/ha, visual grading after ca. 3 weeks vs untreated controls
Text: as §2

Echinochloa crus-galli [15] = test: Herbicidal pre-emergence action, ECHCG; conditions: 1280 g/ha, visual grading after ca. 3 weeks vs untreated controls
Text: as §2

Veronica persica [16] = test: Herbicidal pre-emergence action, VERPE; conditions: visual grading after ca. 3 weeks vs untreated controls
Text: as §1

Poa annua [17] = test: Herbicidal pre-emergence action, POAAN; conditions: visual grading after ca. 3 weeks vs untreated controls
Text: as §1

Abutilon theophrasti [18] = test: Herbicidal post-emergence action, ABUTH; conditions: 1280 g/ha, assessed visually after ca. 3 weeks vs untreated controls
Text: as §3

Alopecurus myosuroides [19] = test: Herbicidal post-emergence action, ALOMY; conditions: assessed visually after ca. 3 weeks vs untreated controls
Text: as §3

Kochia scoparia [20] = test: Herbicidal post-emergence action, KCHSC; conditions: assessed visually after ca. 3 weeks vs untreated controls
Text: as §3

Setaria viridis [21] = test: Herbicidal post-emergence action, SETVI; conditions: 1280 g/ha, assessed visually after ca. 3 weeks vs untreated controls
Text: as §4

Poa annua [22] = test: Herbicidal post-emergence action, POAAN; conditions: assessed visually after ca. 3 weeks vs untreated controls
Text: as §3

Digitaria sanguinalis = test: Herbicidal pre-emergence action, DIGSA; conditions: 1280 g/ha, visual grading after ca. 3 weeks vs untreated controls
Text: as §2

Row | SMILES | herbicidal effect KCHSC (Kochia scoparia [1]; 1280 g/ha) [%] | herbicidal effect LOLRI (Lolium rigidum [2]; 1280 g/ha) [%] | herbicidal effect MATIN (Matricaria inodora [3]; 320 g/ha) [%] | herbicidal effect MATIN (Matricaria inodora [3]; 1280 g/ha) [%] | herbicidal effect STEME (Stellaria media [5]; 320 g/ha) [%] | herbicidal effect STEME (Stellaria media [5]; 1280 g/ha) [%] | herbicidal effect AMARE (Amaranthus retroflexus [6]; 1280 g/ha) [%] | herbicidal effect LOLRI (Lolium rigidum [8]; 1280 g/ha) [%] | herbicidal effect MATIN (Matricaria inodora [9]; 1280 g/ha) [%] | herbicidal effect STEME (Stellaria media [10]; 320 g/ha) [%] | herbicidal effect STEME (Stellaria media [10]; 1280 g/ha) [%] | herbicidal effect VERPE (Veronica persica [11]; 1280 g/ha) [%] | herbicidal effect AMARE (Amaranthus retroflexus [12]; 1280 g/ha) [%] | herbicidal effect POAAN (Poa annua [17]; 1280 g/ha) [%] | herbicidal effect KCHSC (Kochia scoparia [20]; 1280 g/ha) [%] | herbicidal effect MATIN (Matricaria inodora [9]; 320 g/ha) [%] | herbicidal effect SETVI (Setaria viridis [21]) [%] | herbicidal effect VERPE (Veronica persica [11]; 320 g/ha) [%] | herbicidal effect POAAN (Poa annua [22]; 320 g/ha) [%] | herbicidal effect POAAN (Poa annua [22]; 1280 g/ha) [%] | other results
1 | CC(C)c1ccnc(F)c1C(=O)Nc1ncns1 [Example I-025] | 90 | 100 | 100 | 100 | 90 | 90 | 100 | 90 | 90 | 90 | 90 | 90 | 100 | – | – | – | – | – | – | – | herbicidal effect LOLRI (Lolium rigidum [2]; 320 g/ha): 90%; herbicidal effect SETVI (Setaria viridis [4]): 90%; herbicidal effect AMARE (Amaranthus retroflexus [6]; 320 g/ha): 90%; herbicidal effect ABUTH (Abutilon theophrasti [7]): 100%; herbicidal effect AMARE (Amaranthus retroflexus [12]; 320 g/ha): 90%; herbicidal effect ECHCG (Echinochloa crus-galli [13]): 90%
2 | O=C(Nc1nc(Cl)ns1)c1c(C(F)(F)F)ccnc1F [Example I-009, N-(3-chloro-1,2,4-thiadiazol-5-yl)-2-fluoro-4-(trifluoromethyl)pyridine-3-carboxamide] | 100 | 90 | 100 | 100 | 100 | 100 | 100 | 90 | 100 | 100 | 100 | 100 | 100 | 90 | 100 | 100 | 90 | 100 | 90 | 100 | herbicidal effect ALOMY (Alopecurus myosuroides [14]): 100%; herbicidal effect ECHCG (Echinochloa crus-galli [15]): 90%; herbicidal effect KCHSC (Kochia scoparia [1]; 320 g/ha): 90%; herbicidal effect SETVI (Setaria viridis [4]): 90%; herbicidal effect VERPE (Veronica persica [16]; 1280 g/ha): 90%; herbicidal effect AMARE (Amaranthus retroflexus [6]; 320 g/ha): 90%; herbicidal effect ABUTH (Abutilon theophrasti [18]): 90%; herbicidal effect ALOMY (Alopecurus myosuroides [19]; 320 g/ha): 90%; herbicidal effect ALOMY (Alopecurus myosuroides [19]; 1280 g/ha): 100%; herbicidal effect KCHSC (Kochia scoparia [20]; 320 g/ha): 100%; herbicidal effect AMARE (Amaranthus retroflexus [12]; 320 g/ha): 100%
3 | O=C(Nc1ncns1)c1c(C(F)(F)F)ccnc1F [Example I-002] | 90 | 100 | 90 | 100 | 100 | 100 | 90 | 100 | 100 | 100 | 100 | 100 | 100 | 100 | 100 | 90 | 90 | 100 | 100 | 100 | herbicidal effect LOLRI (Lolium rigidum [2]; 320 g/ha): 100%; herbicidal effect VERPE (Veronica persica [16]; 320 g/ha): 90%; herbicidal effect VERPE (Veronica persica [16]; 1280 g/ha): 100%; herbicidal effect POAAN (Poa annua [17]; 320 g/ha): 100%; herbicidal effect ABUTH (Abutilon theophrasti [18]): 90%; herbicidal effect ALOMY (Alopecurus myosuroides [19]; 320 g/ha): 100%; herbicidal effect ALOMY (Alopecurus myosuroides [19]; 1280 g/ha): 100%; herbicidal effect KCHSC (Kochia scoparia [20]; 320 g/ha): 100%; herbicidal effect LOLRI (Lolium rigidum [8]; 320 g/ha): 90%
4 | O=C(Nc1nc(Cl)ns1)c1cnccc1C(F)(F)F [Example I-015] | 90 | – | – | – | – | – | – | – | 100 | 100 | 100 | 90 | 100 | – | 90 | 90 | 90 | 90 | – | – | –
5 | O=C(Nc1ncns1)c1c(C(F)(F)F)ccnc1C1CC1 [Example I-005] | 100 | 100 | – | 100 | 100 | 100 | 100 | – | – | 90 | 90 | 100 | – | 100 | 90 | – | – | 100 | 100 | 100 | herbicidal effect POAAN (Poa annua [17]; 320 g/ha): 100%; herbicidal effect DIGSA (Digitaria sanguinalis): 90%
